A short description of series [1]: Determination of gelation time by coagulation meter. To be noted: for gelation time, effect of temperature: 37° C. versus 25° C., FIGS. 1 and 2; for onset of gelation: different temperatures, different concentrations, FIGS. 3 and 4. The series is classed as physicochemical. On the procedure:
In one embodiment, the nanofiber formation of the self-assembling peptides is affected by concentration of the peptide solution (Luo, Z., S. Wang, and S. Zhang, Fabrication of self-assembling D-form peptide nanofiber scaffold d-EAK16 for rapid hemostasis. Biomaterials, 2011. 32(8): p. 2013-2020). The gelation time of different peptides at various concentrations was recorded using a coagulation meter. FIGS. 1 and 2 illustrate the gelation time of two peptides with different concentrations at two different temperatures (25° C., 37° C.). As shown in both FIGS. 1 and 2, as the concentration of peptide increases, the required time for gelation decreases.
In one embodiment, the peptide gelation is impacted by temperature. […] This effect can be explained by the increasing of kinetic energy which is helps in bond formation within molecules enabling the peptide solution to form gels faster at 37° C. than at 25° C.
In one embodiment, the gelation time is impacted by temperature.
In this study, onset of gelation was assessed using coagulation meter MC 10 PLUS (MERLIN® Medical, Germany). The peptide solution at different concentrations was used and checked under various conditions. For the coagulation experiment, 300 μl of peptide solution was added into a tube and placed in the preheated position for 50 seconds before adding 30 μl of PBS. The time at which the gel formed was then recorded. The temperature was chosen in advance and all solutions were incubated at the desired temperature before conducting the measurements.

For series [2], the system named is plasma. Put plainly: Blood coagulation test (aPTT), normal plasma. To be noted: peptide solution mixed with plasma, 37° C., control without peptides around 40 seconds. As to the method: In one embodiment, an application of the peptide-based hemostatic material in the present disclosure to the bleeding wound produces a coagulation time of less than 40 seconds. The coagulation time of normal plasma (without self-assembling peptides) and plasma with IVZK (SEQ ID NO. 2) or IVFK (SEQ ID NO. 1) hydrogels as initiators for clot formation was compared using a partial thromboplastin time (aPTT) test. The hemostatic properties of the peptides were evaluated by measuring the coagulation time after mixing the peptide solution with plasma. […] The coagulation time of the control (without self-assembling peptides) was around 40 seconds, which is within the normal range.
The aPTT test was performed in a coagulation meter MC 10 PLUS (MERLIN® Medical, Germany). First, 100 μL of plasma was incubated at 37° C., followed by adding 100 μL of a-PTT reagent. Then, the plasma-reagent mixture was incubated at 37° C. for 5 minutes (activation time). Finally, 100 μL of pre-warmed […] calcium chloride was added and time clot formation was recorded. In experimental group, 150 μL of plasma was pre-warmed and then 150 μL of peptide solution was added and the time was recorded. Each test was conducted at least three times.

Series [3] deals with Human platelets. Description: Surface coating and platelet adhesion. The settings on record: fluorescence microscopy images, FIG. 23; for platelet adhesion: coated surface. The series is classed as cell-based. The text has this: In one embodiment, the self-assembling peptides induce platelet adhenrance. In a preferred embodiment, the self-assembling peptides induce more platelet adhenrance than collagen. One important factor for accelerating blood coagulation could be by promoting the recruitment and adherence of platelets to the site of injury as these processes play a critical role in primary hemostasis (O'Shaughnessy, D. and R. Gill, 19 Cardiothoracic surgery. Practical Hemostasis and Thrombosis, 2009: p. 194). Therefore, platelet adherence induced by peptide hydrogels, type I collagen (positive control), and bovine serum albumin (BSA) (negative comtrol) was tested and compared. […] The scale bar in FIG. 23 is 100 μm. […] The level of platelet adhesion induced by peptide hydrogels, type I collagen (positive control) was also quantified, as shown in FIG. 24. According to FIG. 24, the level of platelet adhesion induced by peptide hydrogels is even higher than that of collagen. […] Therefore, our peptides induced platelet adhesion, a process that may help trigger the coagulation system.
The procedure was done as described previously (Chen, C., et al., Hydrogelation of the short self-assembling peptide 13QGK regulated by transglutaminase and use for rapid hemostasis. ACS applied materials & interfaces, 2016. 8(28): p. 17833-17841). Briefly, for surface coating. 200 μL of 6 mM IVFK (SEQ ID NO. 1), 6 mM IVZK (SEQ ID NO. 2), 0.5% (w/v), BSA (PBS, pH 7.4), and 0.01 mg/mL type I collagen (PBS, pH 7.4) solutions were added to the wells of a 96-well black plate and incubated at 4° C. for 24 h. The wells were washed three times with PBS after removing these solutions. Human platelets were isolated from whole human blood containing anticoagulant sodium citrate (0.38%, w/v) as described previously(Chen, C., et al., Hydrogelation of the short self-assembling peptide 13QGK regulated by transglutaminase and use for rapid hemostasis. ACS applied materials & interfaces, 2016. 8(28): p. 17833-17841). The blood collection was approved by IBEC (18IBEC143). Briefly, platelet-rich plasma (PRP) was collected by centrifugation at 200×g for 20 min at 25° C. Then, PRP was diluted at a 1:1 ratio with PBS and subjected to second centrifugation at 800×g for 12 min at 25° C. The isolated platelets were washed three times with Tyrode's buffer (Hepes 20 mM, glucose […], BSA 1 mg/mL, NaH2PO4 3.3 mM, NaCl 137 mM, KCl 2.7 mM), followed by staining with calcein-AM (1 μg/mL) for 30 min in the dark at room temperature to stained platelets. After washing twice with PBS, the stained platelets were added into the coated wells and incubated for 1 h at 37° C. Subsequently, the supernatants were removed, and the unbound platelets were discarded by washing three times with PBS. The fluorescence of adherent platelets was measured by fluorescence microscopy.

Non-standard residues stand in square brackets, D forms with d. No end group written: not given here. Cha = N[C@@H](CC1CCCCC1)C(=O)O

“IVZK: tetrameric self-assembling ultrashort peptide IVZK (SEQ ID NO. 2), forms nanofibrous hydrogel (IV[Cha]K)”: in series [1], the “gelation time, effect of temperature” value is “faster gelation at 37 °C” and the onset of gelation result is on record as “occurs faster with the increase of temperature”. For the same substance, the “coagulation (clotting) time” value in series [2] is on record as “around 5 seconds”. Also, in series [3], the platelet adhesion result is recorded as “considerable platelet adhesion” and the “level of platelet adhesion relative to collagen (positive control)” value is recorded as “comparable to that on the surface of collagen”.
Consider “bovine serum albumin [BSA, reference compound]”, for which the platelet adhesion entry in series [3] is “little platelet adhesion”.
Consider “IVFK: tetrameric self-assembling ultrashort peptide IVFK (SEQ ID NO. 1), forms nanofibrous hydrogel”, for which, in series [1], the “gelation time, effect of temperature” value was “faster gelation at 37 °C” and the onset of gelation entry is given as “occurs faster with the increase of temperature”. For the same substance, the “coagulation (clotting) time” value in series [2] is recorded as “around 5 seconds”. Besides, in series [3], the platelet adhesion result is “considerable platelet adhesion” and the “level of platelet adhesion relative to collagen (positive control)” value is listed as “comparable to that on the surface of collagen”.

(Values after patent US20240261465A1, “METHOD OF STOPPING BLEEDING USING NANOFIBROUS PEPTIDE HYDROGELS AS HEMOSTASIS AGENT” (KING ABDULLAH UNIVERSITY OF SCIENCE AND TECHNOLOGY, priority 2021, published 2024).)
